Measurements published in patent US20040167226A1, “Methods for the treatment of pain and traumatic injury using benzamides and compositions containing the same” (priority 2002, published 2004).
Entries after “also recorded” stand apart in the source; their conditions may differ.

Assays:
[1] = Brain-blood distribution of Compound A in the squirrel monkey; type: in vivo; conditions: brain / whole blood, twice-daily 10 mg/kg po for 5 weeks, 24 h post-dose, n = 12, read-out: Brain/Blood Ratio (Mean ± SD)
Protocol: Blood-brain distribution of Compound A was assessed in the mouse, rat, and squirrel monkey by determining the concentrations of Compound A in blood and brain tissue at specific times post dose. Rats and mice received a single po dose of 30 mg/kg. The monkeys received a twice-daily 10 mg/kg po dose of Compound A for a total of 5 weeks prior to sacrifice. Brain to blood ratios for Compound A, as shown below in Table 4, show high penetration of the blood-brain barrier.

[2] = system: contused spinal cord injury; test: Spinal cord injury, contusion model, BBB locomotor score; type: in vivo, Sprague-Dawley rats; conditions: SCI Study No. 4; 14 day contusion; rats; 20 mg/kg BID i.p., 75% PEG200 formulation
Protocol: Compound A was tested in both the rat dorsal hemisection (Guth, L. et al. (1980), J. Neurosurgery 52: 73-86) and contusion models (Scheff, S. W. (2003), J. Neurotrauma 20: 179-193) for evaluation of efficacy. These models are widely used in the field of spinal cord injury and replicate many of the pathological aspects found in humans who have sustained a spinal cord injury. Rats were subjected to an experimental spinal cord injury at T8, and were given Compound A shortly thereafter. Behavioral tests to assess the locomotion deficits were performed after the lesion. At the end of the experiment, animals were sacrificed and the spinal cord was collected for histopathological analysis. […] Histological assessment of the tissue at the site of injury was also made in both the drug treated and untreated group. […]
The BBB score is a 21-point scale representing 21 stages of locomotor recovery after spinal cord injury. The scale is based on unique combinations of scored behaviors, ranked according to time of appearance after injury. […]

[3] = system: neurofilament (nerve fiber density); test: Immunohistochemistry of neurofilament on transverse spinal cord sections; type: in vivo; conditions: rats after spinal cord injury; anti-neurofilament staining; sections rostral and caudal to epicenter
Protocol: (§1) Compound A was tested in both the rat dorsal hemisection (Guth, L. et al. (1980), J. Neurosurgery 52: 73-86) and contusion models (Scheff, S. W. (2003), J. Neurotrauma 20: 179-193) for evaluation of efficacy. These models are widely used in the field of spinal cord injury and replicate many of the pathological aspects found in humans who have sustained a spinal cord injury. Rats were subjected to an experimental spinal cord injury at T8, and were given Compound A shortly thereafter. Behavioral tests to assess the locomotion deficits were performed after the lesion. At the end of the experiment, animals were sacrificed and the spinal cord was collected for histopathological analysis. […] Histological assessment of the tissue at the site of injury was also made in both the drug treated and untreated group. In particular, subsequent to the behavioral measurement, spinal cord tissue from each animal was obtained and serial transverse tissue sections were stained with either anti-neurofilament antibody or antibodies specific for the inflammatory markers, tumor necrosis factor alpha (TNFα) and for the inducible form of nitric oxide synthetase (iNOS), followed by incubation with Alexa Fluor®-conjugated secondary antibodies.

[4] = Absolute oral bioavailability and blood t1/2 of Compound A; type: in vivo, rats; conditions: rat, whole blood
Protocol: The absolute oral bioavailability of Compound A was determined by comparing the area-under-the-curve (“AUC”) following a 20 mg/kg IV dose of Compound A (2 ml/kg, 75% PEG solution) to a 20 mg/kg dose of Compound A dissolved in 1% methyl cellulose. Blood concentrations were determined at 0, 0.083, 0.15, 0.5, 1, 2, 4, 8, and 24 hours post-IV dose and 0, 0.5, 1, 2, 4 and 8 hours post-oral dose. Four animals were dosed orally and four animals were dosed intravenously.
In another experiment, six rats were orally dosed with 30 mg/kg of Compound A dissolved in 1% methyl cellulose. Blood samples were taken at 0.5, 1, 2, 5, 8, 12, 16, 20 and 24 hours. The apparent t1/2 for Compound A in the blood was 8 hours. This is a very long t1/2 for a drug in rats and is a good predictor of once-a-day dosing for Compound A in humans. Such a dosing regimen would be a significant therapeutic advantage in the clinic.
The blood samples were analyzed by HPLC. Detection was by UV at 262 nm. Responses were converted to concentrations by comparison to responses from calibration standards injected onto the column. The resulting concentrations were used to calculate the AUC.

[5] = system: dorsal hemisection spinal cord injury; test: Spinal cord injury, T8 dorsal hemisection / over dorsal hemisection, BBB locomotor score; type: in vivo, Sprague-Dawley rats; conditions: rats
Protocol: as §1
Female rats (Sprague-Dawley, 250-300 g) were purchased from Charles River. One week before spinal cord injury, the animals were both trained and had baseline measures taken on a locomotor behavioral test, the BBB test (Beattie Basso Bresnahan method) (Basso, D. M. et al. (1995), J. Neurotrauma 12(1): 1-21).
The BBB score is a 21-point scale representing 21 stages of locomotor recovery after spinal cord injury. The scale is based on unique combinations of scored behaviors, ranked according to time of appearance after injury. The score can be divided into three parts: from 0-8, the scores emphasize voluntary movements of hindlimb joints; from 8-14, the scores represent standing and stepping with progressively better forelimb-hindlimb coordination; from 15-21, the scores indicate greater strength and better foot placement and balance. […]

In the case of `CC(=O)Nc1ccc(C(=O)NC(C)(C)C)cc1` [Compound A, N-tert-butyl-4-acetamidobenzamide], the Kp at 24 h [1] is reported as 0.88 ± 0.09, the “functional neurological outcome, BBB score” value [2] is reported as “no significant effects were observed” and the “nerve fiber density in spinal cord tissue vs vehicle control” value [3] is reported as “significantly higher nerve fiber density”. The bioavailability ([4]; AUC of 20 mg/kg oral (1% methyl cellulose) vs 20 mg/kg IV (75% PEG), read-out: absolute bioavailability through oral dosing) was 52%, the half-life ([4]; rats, 30 mg/kg oral in 1% methyl cellulose, read-out: apparent t1/2 in the blood (converted)) was 8 h and the “neurological function, BBB score” value ([5]; SCI Study No. 1, 14 day dorsal hemisection (1.5 mm), i.p. BID 5 days, 75% PEG200 formulation) was “significant improvement in neurological function”. For the same compound, the “neurological function, BBB score” value ([5]; SCI Study No. 2, 21 day over dorsal hemisection (2 mm), 20 mg/kg BID i.p. 5 days, 75% PEG200 formulation) was “significant improvement in neurological function” and the “neurological function, BBB score” value ([5]; SCI Study No. 3, 5 week over dorsal hemisection, 20 mg/kg BID i.p. 5 days, 50% PEG400/25% ETOH/25% dH2O, 20 mg/kg) was “significant improvement in neurological function; also recorded: robust acute and long-term effects up to 5 weeks”.
